From patent US10501440B2, “Heteroarylcarboxamide derivatives as plasma kallikrein inhibitors” (Boehringer Ingelheim International GmbH, priority 2017, dated 2019) come the findings set out here.

Format in all cases: biochemical
The target of assay [1] is T1, KLKB1 (Homo sapiens (Human), UniProt P03952). Nature of the assay: Inhibition of KLKB1 using an endpoint assay (fluorogenic substrate H-Pro-Phe-Arg-AMC). To be noted: endpoint assay, 1 h at room temperature, 0.10 μM H-Pro-Phe-Arg-AMC; read-out: IC50. The method, then: (§1) The ability of compounds of formula (I) to inhibit plasma kallikrein (KLKB1), Factor XIIa (FXIIa), Factor XIa (FXIa), Factor Xa (FXa), Factor IIa (alpha-thrombin; FIIa), plasmin, trypsin, tissue kallikrein 1 (KLK1), Factor Vila (FVIIa), or FVIIa complexed with Tissue Factor, phospholipids and CaCl2 (FVIIa/TF/PL/CaCl2) was determined using the following biochemical assays in assay buffer (100 mM Tris, 150 mM NaCL, adjusted to a pH of 7.8 with HCl, and containing 0.1% (w/v) BSA and 0.05% (v/v) Tween20) in the presence of 1% (v/v) DMSO:
Evaluation of the Inhibition of KLKB1 Using an Endpoint Assay
Human KLKB1 (0.01 U/mL; Enzyme Research Laboratories) or rat KLKB1 (0.625 nM; produced in-house) was incubated for 1 h at room temperature with 0.10 μM fluorogenic substrate H-Pro-Phe-Arg-AMC (11295 from Bachem) and various concentrations of the test compound in assay buffer. Subsequently, PPACK 11 (Calbiochem) was added as a stop solution to achieve a final concentration of 1 μM and fluorescence was measured using an Envision Reader (PerkinElmer) with the wavelength excitation setting of 355 nm and the wavelength emission setting of 460 nm.
(§2) The number of the compound corresponds to the number of the Example in the experimental section.

Assay [2] concerns the target T1, KLKB1. The experiment in a line: Inhibition of KLKB1 in kaolin activated human PPP. To be noted: for IC50: read-out: IC50. The method, then: Evaluation of the Inhibition of KLKB1 in Kaolin Activated Human PPP
Platelet poor plasma (PPP) obtained from human wholeblood, anticoagulated with Na-Citrat, was incubated with various concentrations of the test compound together with either 25, 75, 250, or 750 μg/mL kaolin in assay buffer for 20 min at 37° C. such that for each kaolin dose used a concentration response was obtained for the test compound.
as §2

Assay [3] concerns the target T1, KLKB1. The experiment in a line: Inhibition of KLKB1 (Ki), kinetic assay. Conditions: 24° C., 0.25 mM H-Pro-Phe-Arg-AMC; IC50 corrected for KM of substrate. The method, then:
as §1
Evaluation of the Inhibition of KLKB1 (Ki)
Measurements were performed in a kinetic interval every 2nd minute for 16 min using a Spectramax M5 (Molecular Devices) with the following settings of the wavelength excitation of 350 nm and wavelength emission of 450 nm.
as §2
Calculation of pIC50 and Pki Values
The pIC50 values were then fitted using a four-parametric fitting procedure using GraphPad Prism (version 6; GraphPad Software, Inc.).
Where the IC50 is in molar and the KM value in mM.

The target in assay [4] is T1, KLKB1. Nature of the assay: Inhibition of human KLKB1 in dextran sulfate activated human PPP. Conditions: human platelet poor plasma (EDTA) activated with 12.5 μg/mL dextransulfate, 24° C.; read-out: IC50. Here is the method: Evaluation of the Inhibition of Human KLKB1 in Dextran Sulfate Activated Human PPP
Platelet poor plasma (PPP) obtained from human wholeblood, anticoagulated with EDTA, was activated with 12.5 μg/mL dextransulfate for 7 min on ice. The activated PPP was incubated with various concentrations of the test compound in assay buffer. Afterwards the mixture was incubated at 24° C. with 0.25 mM fluorogenic substrate H-Pro-Phe-Arg-AMC (11295 from Bachem) and measurements were performed in a kinetic interval every 2nd minute for 16 min using a Spectramax M5 (Molecular Devices) with the following settings of the wavelength excitation of 350 nm and wavelength emission of 450 nm.
as §2

Setting [5] is: human platelet poor plasma (Na-Citrat), 25, 75, 250 or 750 μg/mL kaolin, global fit.
Setting [6] is: human platelet poor plasma (Na-Citrat), 25, 75, 250 or 750 μg/mL kaolin, global fit, read-out: IC90.

Where two headings read alike, the source gives them in different places.

T1 sequence (P03952 391-638 limits assumed): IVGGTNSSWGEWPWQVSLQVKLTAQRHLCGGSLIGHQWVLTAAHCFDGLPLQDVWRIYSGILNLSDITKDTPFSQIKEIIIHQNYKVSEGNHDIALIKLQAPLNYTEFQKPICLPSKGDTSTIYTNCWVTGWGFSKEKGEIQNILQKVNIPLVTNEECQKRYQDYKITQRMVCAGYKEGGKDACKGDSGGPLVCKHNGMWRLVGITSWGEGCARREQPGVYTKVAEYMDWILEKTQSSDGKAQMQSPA
T1 sequence (P03952 20-390 partner limits assumed): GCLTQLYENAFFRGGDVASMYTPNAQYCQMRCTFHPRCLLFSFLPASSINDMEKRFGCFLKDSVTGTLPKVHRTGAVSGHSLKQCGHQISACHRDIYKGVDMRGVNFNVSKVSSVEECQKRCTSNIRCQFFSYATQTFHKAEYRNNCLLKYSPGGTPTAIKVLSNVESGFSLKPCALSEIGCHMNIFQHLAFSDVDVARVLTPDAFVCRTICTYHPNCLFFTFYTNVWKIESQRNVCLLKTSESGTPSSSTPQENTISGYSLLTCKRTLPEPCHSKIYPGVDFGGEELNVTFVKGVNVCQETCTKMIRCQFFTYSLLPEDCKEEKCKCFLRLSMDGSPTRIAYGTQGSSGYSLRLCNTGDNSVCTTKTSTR

With `Cc1cc2c(c(N)n1)CC[C@H]2NC(=O)c1cnn(Cc2ccc(N3CC4CC4C3)nc2C)c1` (stereo partly shown) [Example 2], the IC50 came to 0.3 nM on KLKB1 [1] and 16.6 nM at KLKB1 [2] (setting [5]). In addition, the concentration for an effect of 90% (IC90) on KLKB1 [2] (setting [6]) is 134 nM. The Ki on KLKB1 [3] was 0.3 nM.

As for `Cc1nc(N2CC3CC3C2)ccc1Cn1cc(C(=O)N[C@@H]2CCc3c2ccnc3N)c(C)n1` (stereo partly shown) [Example 3], the results for the 50% inhibitory concentration (IC50) at KLKB1 [1] and on KLKB1 [2] (setting [5]) were 0.7 nM and 20.1 nM, respectively. At KLKB1 [2] (setting [6]), the IC90 was determined as 238 nM. The compound further yielded a Ki at KLKB1 [3] of 0.3 nM.

Turning to `Cc1nc(N2CC3CC3C2)ccc1Cn1cc(C(=O)N[C@@H]2CCc3c2ccnc3N)c(C(F)(F)F)n1` (stereo partly shown) [Example 4], the half-inhibitory concentration (IC50) at KLKB1 [1] was 0.8 nM; at KLKB1 [2] (setting [5]), 18 nM. Also, the concentration for an effect of 90% (IC90) on KLKB1 [2] (setting [6]) stood at 446 nM. The same compound showed a Ki on KLKB1 [3] of 0.4 nM.

As for `Cc1nc(N2CC3CC3C2)ccc1Cn1cc(C(=O)N[C@@H]2CCc3c2ccnc3N)nn1` (stereo partly shown) [Example 5], the 50% inhibitory concentration (IC50) at KLKB1 [1] amounted to 0.8 nM; on KLKB1 [4], 61.2 nM. Further, the affinity on KLKB1 [3], expressed as Ki, was 0.4 nM.

Regarding `Cc1nc(N2CC3CC3C2)ccc1Cn1cc(C(=O)N[C@@H]2CCc3c2ccnc3N)c(C(C)C)n1` (stereo partly shown) [Example 6], on KLKB1 [1], the IC50 worked out at 1 nM.

Regarding `Cc1nc(N2CC3C(C2)C3(F)F)ccc1Cn1cc(C(=O)N[C@@H]2CCc3c2ccnc3N)c(C(F)(F)F)n1` (stereo partly shown) [Example 7], the 50% inhibitory concentration (IC50) on KLKB1 [1] stood at 1.1 nM; at KLKB1 [2] (setting [5]), 17.9 nM. Also, on KLKB1 [2] (setting [6]), the IC90 was 199 nM. The affinity at KLKB1 [3], expressed as Ki, was 1.9 nM.

Regarding `Cc1nc(N2CC3C(C2)C3(F)F)ccc1Cn1cc(C(=O)N[C@@H]2CCc3c2ccnc3N)nn1` (stereo partly shown) [Example 8], the IC50 at KLKB1 [1] was determined as 5.5 nM.

As for `Cc1cc2c(c(N)n1)CC[C@H]2NC(=O)c1cnn(Cc2ccc(N3CC4C(C3)C4(F)F)nc2C)c1` (stereo partly drawn) [Example 10, N-[(5R)-1-Amino-3-methyl-5H,6H,7H-cyclopenta[c]pyridin-5-yl]-1-[(6-{6,6-difluoro-3-azabicyclo[3.1.0]hexan-3-yl}-2-methylpyridin-3-yl)methyl]-1H-pyrazole-4-carboxamide], the values for the IC50 on KLKB1 [1] and on KLKB1 [2] (setting [5]) were 0.4 nM and 16.2 nM, respectively. The compound also gave an IC90 against KLKB1 [2] of 96.2 nM. On KLKB1 [3], this compound displayed a Ki of 0.4 nM.

Turning to `Cc1nc(N2C[C@@H]3[C@H](CO)[C@@H]3C2)ccc1Cn1cc(C(=O)N[C@@H]2CCc3c2ccnc3N)cn1` [Example 12], the results for the IC50 on KLKB1 [1] and at KLKB1 [4] were 1.9 nM and 46.7 nM, respectively. At KLKB1 [3], this compound displayed a Ki of 0.6 nM.

In the case of `Cc1cc2c(c(N)n1)CC[C@H]2NC(=O)c1cn(Cc2ccc(N3CC4CC4C3)nc2C)nc1C` (stereo partly drawn) [Example 15, N-[(5R)-1-Amino-3-methyl-5H,6H,7H-cyclopenta[c]pyridin-5-yl]-1-[(6-{3-azabicyclo[3.1.0]hexan-3-yl}-2-methylpyridin-3-yl)methyl]-3-methyl-1H-pyrazole-4-carboxamide], at KLKB1 [1], the IC50 amounted to 0.5 nM. Further, the affinity at KLKB1 [3] corresponds to a Ki of 0.4 nM.

For `Cc1nc(N2CC3CC3C2)ncc1Cn1cc(C(=O)N[C@@H]2CCc3c2ccnc3N)nn1` (stereo partly drawn) [Example 16, N-[(5R)-1-Amino-5H,6H,7H-cyclopenta[c]pyridin-5-yl]-1-[(2-{3-azabicyclo[3.1.0]hexan-3-yl}-4-methylpyrimidin-5-yl)methyl]-1H-1,2,3-triazole-4-carboxamide], the IC50 on KLKB1 [1] came to 5.3 nM. The compound also returned an inhibition constant (Ki) at KLKB1 [3] of 2.2 nM.

Regarding `Cc1cc2c(c(N)n1)CC[C@H]2NC(=O)c1cnn(Cc2cnc(N3CC4CC4C3)nc2C)c1` (stereo partly drawn) [Example 17, N-[(5R)-1-Amino-3-methyl-5H,6H,7H-cyclopenta[c]pyridin-5-yl]-1-[(2-{3-azabicyclo[3.1.0]hexan-3-yl}-4-methylpyrimidin-5-yl)methyl]-1H-pyrazole-4-carboxamide], the IC50 came to 1 nM on KLKB1 [1] and 52.2 nM at KLKB1 [2] (setting [5]). Moreover, at KLKB1 [2], the IC90 came out at 511 nM. For the same compound, at KLKB1 [3], the inhibition constant Ki was 0.5 nM.

Turning to `Cc1cc2c(c(N)n1)CC[C@H]2NC(=O)c1cn(Cc2cnc(N3CC4CC4C3)nc2C)nn1` (stereo partly drawn) [Example 18, N-[(5R)-1-Amino-3-methyl-5H,6H,7H-cyclopenta[c]pyridin-5-yl]-1-[(2-{3-azabicyclo[3.1.0]hexan-3-yl}-4-methylpyrimidin-5-yl)methyl]-1H-1,2,3-triazole-4-carboxamide], the IC50 at KLKB1 [1] was 1.2 nM. On KLKB1 [3], this compound had an inhibitory constant (Ki) of 0.5 nM.

With `Cc1nc(N2CC3CC3C2)ccc1Cn1cc(C(=O)N[C@@H]2CCc3c2ccnc3N)c(C(F)F)n1` (stereo partly drawn) [Example 19, N-[(5R)-1-Amino-5H,6H,7H-cyclopenta[c]pyridin-5-yl]-1-[(6-{3-azabicyclo[3.1.0]hexan-3-yl}-2-methylpyridin-3-yl)methyl]-3-(difluoromethyl)-1H-pyrazole-4-carboxamide], on KLKB1 [1], the IC50 amounted to 1 nM.

Consider `Cc1nc(N2CC3C(C2)C3(F)F)ncc1Cn1cc(C(=O)N[C@@H]2CCc3c2ccnc3N)nn1` (stereo partly drawn) [Example 20, N-[(5R)-1-Amino-5H,6H,7H-cyclopenta[c]pyridin-5-yl]-1-[(2-{6,6-difluoro-3-azabicyclo[3.1.0]hexan-3-yl}-4-methylpyrimidin-5-yl)methyl]-1H-1,2,3-triazole-4-carboxamide], for which the IC50 at KLKB1 [1] was 3.9 nM.

For `Cc1cc2c(c(N)n1)CC[C@H]2NC(=O)c1cn(Cc2cnc(N3CC4C(C3)C4(F)F)nc2C)nn1` (stereo partly drawn) [Example 21, N-[(5R)-1-Amino-3-methyl-5H,6H,7H-cyclopenta[c]pyridin-5-yl]-1-[(2-{6,6-difluoro-3-azabicyclo[3.1.0]hexan-3-yl}-4-methylpyrimidin-5-yl)methyl]-1H-1,2,3-triazole-4-carboxamide], the IC50 at KLKB1 [1] turned out to be 1.4 nM.

Regarding `COc1nn(Cc2ccc(N3CC4CC4C3)nc2C)cc1C(=O)N[C@@H]1CCc2c1ccnc2N` (stereo partly drawn) [Example 22, N-[(5R)-1-Amino-5H,6H,7H-cyclopenta[c]pyridin-5-yl]-1-[(6-{3-azabicyclo[3.1.0]hexan-3-yl}-2-methylpyridin-3-yl)methyl]-3-methoxy-1H-pyrazole-4-carboxamide], the half-inhibitory concentration (IC50) at KLKB1 [1] amounted to 1.1 nM.

On to `Cc1nc(N2CC3C(C2)C3(C)C)ccc1Cn1cc(C(=O)N[C@@H]2CCc3c2ccnc3N)cn1` (stereo partly drawn) [Example 23, N-[(5R)-1-Amino-5H,6H,7H-cyclopenta[c]pyridin-5-yl]-1-[(6-{6,6-dimethyl-3-azabicyclo[3.1.0]hexan-3-yl}-2-methylpyridin-3-yl)methyl]-1H-pyrazole-4-carboxamide], for which the IC50 on KLKB1 [1] worked out at 9.9 nM.

`Cc1nc(N2C[C@@H]3[C@H](C)[C@@H]3C2)ccc1Cn1cc(C(=O)N[C@@H]2CCc3c2ccnc3N)cn1` [Example 24, 1-[2-Methyl-6-((1S,5R,6R)-6-methyl-3-aza-bicyclo[3.1.0]hex-3-yl)-pyridin-3-ylmethyl]-1H-pyrazole-4-carboxylic acid ((R)-1-amino-6,7-dihydro-5H-[2]pyrindin-5-yl)-amide]: the IC50 on KLKB1 [1] worked out at 0.6 nM.

For the compound `Cc1nc(N2CC3(CCC3)C2)ccc1Cn1cc(C(=O)N[C@@H]2CCc3c2ccnc3N)cn1` [Example 25, 1-[6-(2-Aza-spiro[3.3]hept-2-yl)-2-methyl-pyridin-3-ylmethyl]-1H-pyrazole-4-carboxylic acid ((R)-1-amino-6,7-dihydro-5H-[2]pyrindin-5-yl)-amide], the IC50 at KLKB1 [1] worked out at 2.1 nM.

Turning to `Cc1nc(N2CC3(CC3)C2)ccc1Cn1cc(C(=O)N[C@@H]2CCc3c2ccnc3N)cn1` [Example 26, 1-[6-(5-Aza-spiro[2.3]hex-5-yl)-2-methyl-pyridin-3-ylmethyl]-1H-pyrazole-4-carboxylic acid ((R)-1-amino-6,7-dihydro-5H-[2]pyrindin-5-yl)-amide], the half-inhibitory concentration (IC50) on KLKB1 [1] is 1.2 nM.

By IC50 is commonly meant the midpoint of a concentration-inhibition curve. As a reminder, the IC90 is the concentration at which the effect reaches the 90% level. By Ki is commonly meant a measure of affinity in units of concentration, obtained from inhibition or displacement.
